# Data published in ChEMBL document CHEMBL5634141 (Eur J Med Chem, 2023).
# Activity calls are given as the source filed them. No cut-off for these calls is given here.
# What was measured:
# Calu-1 [1] = assay: Antiproliferative activity against human Calu-1 cells expressing KRAS G12C mutant assessed as relative cell viability at 50 nM incubated for 72 hrs by CCK-8 assay; assay type: functional; details: read-out: Activity
# NCI-H23 [2] = assay: Antiproliferative activity against human NCI-H23 cells expressing KRAS G12C mutant assessed as relative cell viability at 50 nM incubated for 72 hrs by CCK-8 assay; assay type: functional; details: read-out: Activity
# NCI-H358 [3] = assay: Antiproliferative activity against human NCI-H358 cells expressing KRAS G12C mutant assessed as relative cell viability at 50 nM incubated for 72 hrs by CCK-8 assay; assay type: functional; details: read-out: Activity
# SW837 [4] = assay: Antiproliferative activity against human SW837 cells expressing KRAS G12C mutant assessed as relative cell viability at 50 nM incubated for 72 hrs by CCK-8 assay; assay type: functional; details: read-out: Activity
# MIA PaCa-2 [5] = assay: Antiproliferative activity against human MIA PaCa-2 cells expressing KRAS G12C mutant assessed as relative cell viability at 50 nM incubated for 72 hrs by CCK-8 assay; assay type: functional; details: read-out: Activity
# NCI-H358 [6] = assay: Antiproliferative activity against human NCI-H358 cells expressing KRAS G12C mutant assessed as inhibition of cell growth incubated for 72 hrs by CCK-8 assay; assay type: functional, cell-based; details: NCI-H358, 72 h
# ASPC1 = assay: Antiproliferative activity against human ASPC1 cells expressing KRAS G12D mutant assessed as inhibition of cell growth incubated for 72 hrs by CCK-8 assay; assay type: functional, cell-based; details: ASPC1, 72 h
# HepG2 = assay: Antiproliferative activity against human HepG2 cells expressing KRAS assessed as inhibition of cell growth incubated for 72 hrs by CCK-8 assay; assay type: functional, cell-based; details: HepG2, 72 h
# MIA PaCa-2 [7] = assay: Antiproliferative activity against human MIA PaCa-2 cells expressing KRAS G12C mutant assessed as inhibition of cell growth incubated for 72 hrs by CCK-8 assay; assay type: functional, cell-based; details: MIA PaCa-2, 72 h
# [8] = Cytotoxicity against HEK293T cells assessed as inhibition of cell growth incubated for 72 hrs by CCK-8 assay; assay type: toxicity, cell-based, HEK-293T; details: human
# [9] = system: von Hippel-Lindau disease tumor suppressor/GTPase KRas (Homo sapiens), P01116+P40337 [G12C]; assay: PROTAC activity at VHL/KRAS G12C mutant in human NCI-H358 cells assessed as induction of protein degradation at 10 to 1000 nM incubated for 48 hrs by Western blotting analysis; assay type: cell-based; details: dose 10-1000 nM
# [10] = system: von Hippel-Lindau disease tumor suppressor/GTPase KRas (Homo sapiens), P01116+P40337 [G12C]; assay: PROTAC activity at VHL/KRAS G12C mutant in human MIA PaCa-2 cells assessed as induction of protein degradation at 10 to 1000 nM incubated for 48 hrs by Western blotting analysis; assay type: cell-based; details: dose 10-1000 nM
# NCI-H358 [11] = assay: Antiproliferative activity against human NCI-H358 cells expressing KRAS G12C mutant assessed as relative cell viability at 100 nM incubated for 72 hrs by CCK-8 assay; assay type: functional; details: read-out: Activity
# SW837 [12] = assay: Antiproliferative activity against human SW837 cells expressing KRAS G12C mutant assessed as relative cell viability at 100 nM incubated for 72 hrs by CCK-8 assay; assay type: functional; details: read-out: Activity
# MIA PaCa-2 [13] = assay: Antiproliferative activity against human MIA PaCa-2 cells expressing KRAS G12C mutant assessed as relative cell viability at 100 nM incubated for 72 hrs by CCK-8 assay; assay type: functional; details: read-out: Activity
# NCI-H23 [14] = assay: Antiproliferative activity against human NCI-H23 cells expressing KRAS G12C mutant assessed as relative cell viability at 100 nM incubated for 72 hrs by CCK-8 assay; assay type: functional; details: read-out: Activity
# Calu-1 [15] = assay: Antiproliferative activity against human Calu-1 cells expressing KRAS G12C mutant assessed as relative cell viability at 100 nM incubated for 72 hrs by CCK-8 assay; assay type: functional; details: read-out: Activity
SMILES,IC50 (NCI-H358 [6]),IC50 (ASPC1),IC50 (HepG2),IC50 (MIA PaCa-2 [7]),IC50 at 72 h [8],further results
Cn1c(=O)n(-c2ccc(C(C)(C)C#N)cc2)c2c3cc(-c4cnc5ccccc5c4)ccc3ncc21 [DACTOLISIB],–,–,–,–,–,viability at 0.05 µM (Calu-1 [1]): 0.88%; viability at 0.05 µM (NCI-H23 [2]): 0.79%; viability at 0.05 µM (NCI-H358 [3]): 0.77%; viability at 0.05 µM (SW837 [4]): 0.82%; viability at 0.05 µM (MIA PaCa-2 [5]): 0.7%
C=CC(=O)N1CCN(c2nc(=O)n(-c3c(C)ccnc3C(C)C)c3nc(-c4c(F)cccc4OCC4CCN(CCCC(=O)N[C@H](C(=O)N5CC(O)C[C@H]5C(=O)NCc5ccc(-c6scnc6C)cc5)C(C)(C)C)CC4)c(F)cc23)[C@@H](C)C1 (some centres undefined),588 nM,–,–,278 nM,–,Activity [9]: inactive; Activity [10]: inactive
Cc1ccc(NC(=O)c2ccnc(C(F)(F)F)c2)cc1-c1cc(OCCO)nc(N2CCOCC2)c1 [NAPORAFENIB],–,–,–,–,–,viability at 0.1 µM (NCI-H358 [11]): 0.81%; viability at 0.1 µM (SW837 [12]): 0.85%; viability at 0.1 µM (MIA PaCa-2 [13]): 0.79%; viability at 0.1 µM (NCI-H23 [14]): 0.82%; viability at 0.1 µM (Calu-1 [15]): 0.9%
Cn1cnc2c(F)c(Nc3ccc(Br)cc3Cl)c(C(=O)NOCCO)cc21 [SELUMETINIB],–,–,–,–,–,viability at 0.05 µM (Calu-1 [1]): 0.82%; viability at 0.05 µM (NCI-H23 [2]): 0.77%; viability at 0.05 µM (NCI-H358 [3]): 0.86%; viability at 0.05 µM (SW837 [4]): 0.73%; viability at 0.05 µM (MIA PaCa-2 [5]): 0.71%

# More lines, main results first:
IC50 (NCI-H358 [6]),IC50 (ASPC1),IC50 (HepG2),IC50 (MIA PaCa-2 [7]),SMILES,IC50 at 72 h [8],further results
233 nM,> 10000 nM,> 10000 nM,337 nM,C=CC(=O)N1CCN(c2nc(=O)n(-c3c(C)ccnc3C(C)C)c3nc(-c4c(F)cccc4OCCN4CCN(CCCC(=O)N[C@H](C(=O)N5C[C@H](O)C[C@H]5C(=O)NCc5ccc(-c6scnc6C)cc5)C(C)(C)C)CC4)c(F)cc23)[C@@H](C)C1,> 10000 nM,–
368 nM,> 10000 nM,> 10000 nM,491 nM,C=CC(=O)N1CCN(c2nc(=O)n(-c3c(C)ccnc3C(C)C)c3nc(-c4c(F)cccc4OCc4cn(CCCC(=O)N[C@H](C(=O)N5C[C@H](O)C[C@H]5C(=O)NCc5ccc(-c6scnc6C)cc5)C(C)(C)C)nn4)c(F)cc23)[C@@H](C)C1,> 10000 nM,–
222 nM,> 10000 nM,> 10000 nM,200 nM,C=CC(=O)N1CCN(c2nc(=O)n(-c3c(C)ccnc3C(C)C)c3nc(-c4c(F)cccc4OCc4cn(CCC(=O)N[C@H](C(=O)N5C[C@H](O)C[C@H]5C(=O)NCc5ccc(-c6scnc6C)cc5)C(C)(C)C)nn4)c(F)cc23)[C@@H](C)C1,> 10000 nM,–
463 nM,> 10000 nM,> 10000 nM,660 nM,C=CC(=O)N1CCN(c2nc(=O)n(-c3c(C)ccnc3C(C)C)c3nc(-c4c(F)cccc4OCc4cn(CCCCC(=O)N[C@H](C(=O)N5C[C@H](O)C[C@H]5C(=O)NCc5ccc(-c6scnc6C)cc5)C(C)(C)C)nn4)c(F)cc23)[C@@H](C)C1,> 10000 nM,–
